Data: patent publication US12528760B2 (DOMPÉ FARMACEUTICI S.P.A., priority 2019, dated 2026)
In brackets after ≈: the same amount, converted by molar mass.

Test: Solubility of Lysine in 2-Methyl-1-propanol
Format: physicochemical
Settings: organic solvent or mixture

SMILES: NCCCC[C@H](N)C(=O)O [Lysine]
- solubility: ~26 mg/mL (≈ 178 mM)
